Converted amounts (≈) assume the structure as drawn.
What was measured:
[1] = Human Hepatocyte Stability (Test D); format: in vitro ADME; conditions: human, cryopreserved pooled human hepatocytes (LiverPool 10-Donor), geometric mean if run multiple times
Procedure: Human Hepatocyte Stability (Test D)
The metabolic stability of compounds in human hepatocytes was assessed using the following protocol:
1. Prepare 10 mM stock solutions of compound and control compounds in appropriate solvent (DMSO). Place incubation medium (L-15 Medium) in a 37° C. water bath, and allow warming for at least 15 minutes prior to use.
2. Add 80 μL of acetonitrile to each well of the 96-well deep well plate (“Quenching plate”).
3. In a new 96-well plate, dilute the 10 mM test compounds and the control compounds to 100 μM by combining 198 μL of acetonitrile and 2 μL of 10 mM stock solution.
4. Remove a vial of cryopreserved (less than −150° C.) human hepatocytes (LiverPool™ 10-Donor Human hepatocytes obtained from Bioreclamation IVT (Product No. S01205)) from storage, ensuring that vials remain at cryogenic temperatures until thawing process ensues. As quickly as possible, thaw the cells by placing the vial in a 37° C. water bath and gently shaking the vials. Vials should remain in water bath until all ice crystals have dissolved and are no longer visible. After thawing is complete, spray vial with 70% ethanol, transfer the vial to a bio-safety cabinet.
5. Open the vial and pour the contents into the 50 mL conical tube containing thawing medium. Place the 50 mL conical tube into a centrifuge and spin at 100 g for 10 minutes (room temperature).
6. Using Cellometer® Vision, count cells and determine the viable cell density. Cells with poor viability (<80% viability) are not acceptable for use.
7. Transfer 247.5 μL of hepatocytes into each well of a 96-well cell incubation plate. Place the plate on Eppendorf Thermomixer Comfort plate shaker to allow the hepatocytes to warm for 10 minutes.
8. Add 2.5 μL of 100 μM test compound or control compounds into an incubation well containing cells to initiate the reaction.
9. Incubate the plate at 37° C. and 900 rpm on an Eppendorf Thermomixer Comfort plate shaker.
10. Centrifuge the quenching plates for 20 minutes at 4,000 rpm. Transfer 30 μL of supernatant of each compound into a 96-well analysis plate. 4 compounds are pooled together into one cassette. Then dilute the pooled sample by adding of 180 μl of pure water. All incubations are performed in singlicate.
All calculations were carried out using Microsoft Excel. Peak areas were determined from extracted ion chromatograms. In vitro intrinsic clearance (in vitro Clint, in μL/min/10^6 cells) of parent compound was determined by regression analysis of the Ln percent parent disappearance vs. time curve. The in vitro intrinsic clearance (in vitro Clint, in μL/min/10^6 cells) reported in Table 36, and was determined from the slope value using the following equation: in vitro Clint=kV/N
V=incubation volume (0.25 mL);
N=number of hepatocytes per well (0.25×10^6 cells)
Where the assay was run multiple times for the same compound, the geometric mean is reported.

[2] = Human Liver Microsomal Stability (Test C); format: in vitro ADME; conditions: human, liver microsomes
In short: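 CLint (μl/min/mg protein) derived from compound depletion in human liver microsomes following a published standardized early-DMPK protocol; replicate determinations given as arithmetic mean.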

[3] = Human Plasma Protein Binding (Test B); format: in vitro ADME; conditions: fraction unbound (fu)
In short: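 Values given as % free (fu) in human plasma, using the method of Wernevik et al. (2020). For compounds tested more than once, the arithmetic mean is given.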

human RXFP1 = biological target: T1, human RXFP1 (Homo sapiens, UniProt Q9HBX9); assay: RXFP1 Hu cAMP (Test A); format: cell-based; set-up: expressed in transfected cells; host or cells: Jump-In T-REx CHO-K1 cells (ThermoFisher), induced with 10 ng/ml doxycycline for 24 h; conditions: RXFP1 Hu cAMP; for EC50: read-out: Test A EC50
T1 sequence (Q9HBX9 1-757): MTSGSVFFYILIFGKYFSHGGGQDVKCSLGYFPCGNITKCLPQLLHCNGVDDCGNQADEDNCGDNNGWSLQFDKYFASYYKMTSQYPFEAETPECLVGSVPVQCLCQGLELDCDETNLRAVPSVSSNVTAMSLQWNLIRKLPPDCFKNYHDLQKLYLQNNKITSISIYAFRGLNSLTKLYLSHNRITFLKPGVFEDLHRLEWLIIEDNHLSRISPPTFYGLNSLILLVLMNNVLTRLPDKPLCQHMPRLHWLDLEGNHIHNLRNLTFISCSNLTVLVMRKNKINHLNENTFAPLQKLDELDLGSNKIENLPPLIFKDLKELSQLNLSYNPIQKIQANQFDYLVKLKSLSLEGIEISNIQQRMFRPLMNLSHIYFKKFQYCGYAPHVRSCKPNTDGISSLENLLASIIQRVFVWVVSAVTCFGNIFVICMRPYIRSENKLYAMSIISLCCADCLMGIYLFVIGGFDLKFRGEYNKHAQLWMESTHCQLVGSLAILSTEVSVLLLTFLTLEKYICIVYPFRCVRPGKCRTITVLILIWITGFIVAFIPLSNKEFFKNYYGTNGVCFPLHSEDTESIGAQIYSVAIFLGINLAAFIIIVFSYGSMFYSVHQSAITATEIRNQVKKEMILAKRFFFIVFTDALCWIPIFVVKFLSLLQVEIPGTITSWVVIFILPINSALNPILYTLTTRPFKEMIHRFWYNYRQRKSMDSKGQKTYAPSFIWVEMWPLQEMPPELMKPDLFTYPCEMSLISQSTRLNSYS
In short: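 Competitive HTRF cAMP readout (2 h, room temperature) in CHO-K1 cells stably expressing human RXFP1, induced with 10 ng/ml doxycycline for 24 h; IBMX 0.5 mM final.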

Solubility (Test F) = format: physicochemical; conditions: arithmetic mean if run multiple times
Procedure: The assay was conducted according to the Solubility Assay described in pages 164-167 of Wernevik, J. et al., “A Fully Integrated Assay Panel for Early Drug Metabolism and Pharmacokinetics Profiling”, Assay and Drug Development Technologies, 2020, 18(4), 157-179. Data are reported in Table 36 as solubility ([…]. Where the assay was run multiple times for the same compound, the arithmetic mean is reported.

[4] = Rat Hepatocyte Stability (Test E); format: in vitro ADME; conditions: rat, hepatocytes, geometric mean if run multiple times
In short: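 Intrinsic clearance in rat hepatocytes, expressed as μl/min/10^6 cells, following the literature integrated DMPK panel method. Repeat determinations combined as geometric mean.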

hepatocyte CLint at 1 µM [1] [µL/min/1e6 cells]	microsomal CLint [2] [µL/min/mg]	Test B Human Plasma Protein Binding (% free) [3] [% free]	Test A Sinf (human RXFP1) [%]	EC50 (human RXFP1) [nM]	solubility (Solubility (Test F)) [µM]	hepatocyte CLint [4] [µL/min/1e6 cells]	SMILES
5	18	<0.30	109	120	880 (≈ 580 µg/mL)	–	COc1cc(F)c(-c2ccc(-c3nn[nH]n3)cc2)cc1C(=O)N[C@@H]1[C@H]2CC[C@H](C2)[C@@H]1C(=O)Nc1cccc(S(=O)(=O)C(F)(F)F)c1 [Example 325, (1R,2S,3R,4S)-3-(6-Fluoro-4-methoxy-4′-(1H-tetrazol-5-yl)-[1,1′-biphenyl]-3-carboxamido)-N-(3-((trifluoromethyl)sulfonyl)phenyl)bicyclo[2.2.1]heptane-2-carboxamide]
3.1	5.5	–	99	160	> 1000	9.7	COc1cc(F)c(O[C@H]2CC[C@@](C)(C(=O)O)CC2)cc1C(=O)N[C@@H]1CCC[C@@H]1C(=O)N[C@H](C)C(C)(C)C [Example 65, (1S,4s)-4-(5-(((1R,2S)-2-(((R)-3,3-Dimethylbutan-2-yl)carbamoyl)cyclopentyl)carbamoyl)-2-fluoro-4-methoxyphenoxy)-1-methylcyclohexane-1-carboxylic acid]
2.9	7.5	–	100	190	980 (≈ 687 µg/mL)	7.4	COc1cc(F)c(O[C@H]2CC[C@@H](C(=O)O)CC2)cc1C(=O)N[C@@H]1[C@@H]2C[C@@H]([C@H]3OCO[C@@H]23)[C@@H]1C(=O)Nc1cccc(S(=O)(=O)C(F)(F)F)c1 [Example 461, (1S,4s)-4-(2-Fluoro-4-methoxy-5-(((3aS,4S,5R,6S,7R,7aR)-6-((3-((trifluoromethyl)sulfonyl)phenyl)carbamoyl)hexahydro-4,7-methanobenzo[d][1,3]dioxol-5-yl)carbamoyl)phenoxy)cyclohexane-1-carboxylic acid]
5.6	14	–	102	–	890 (≈ 462 µg/mL)	57	CCC(C)CNC(=O)C1C2CCC(C2)C1NC(=O)c1cc(OC2CCC(C(=O)O)CC2)c(F)cc1OC (single isomer, unassigned) [Example 202, (1S,4s)-4-(2-Fluoro-4-methoxy-5-(((1S,2R,3S,4R)-3-(((R*)-2-methylbutyl)carbamoyl)bicyclo[2.2.1]heptan-2-yl)carbamoyl)phenoxy)cyclohexane-1-carboxylic acid]
26	110	–	109	200	900 (≈ 597 µg/mL)	30	COc1cc(F)c(-c2ccc(CCC(=O)O)cn2)cc1C(=O)N[C@@H]1[C@H]2CC[C@H](C2)[C@@H]1C(=O)Nc1cccc(S(=O)(=O)C(F)(F)F)c1 [Example 242]
3.7	32	–	100	590	55 (≈ 29.3 µg/mL)	15	COc1cc(F)c(O[C@H]2CC[C@@H](C(=O)O)CC2)cc1C(=O)N[C@@H]1[C@H]2CC[C@H](C2)[C@@H]1C(=O)N[C@H](C)C(C)(C)C [Example 200]
15	64	–	109	18	590 (≈ 380 µg/mL)	46	COc1cc(F)c(O[C@H]2CC[C@@](C)(C(=O)O)CC2)cc1C(=O)N[C@@H]1CCC[C@@H]1C(=O)Nc1cccc(S(=O)(=O)C(F)(F)F)c1 [Example 351]
11	< 3	<0.10	117	190	–	–	COc1cc(F)c(-c2ccc(C(=O)O)cc2)cc1C(=O)Nc1ccccc1C(=O)Nc1cccc(S(=O)(=O)C(F)(F)F)c1 [Example 328, 2′-Fluoro-4′-methoxy-5′-((2-((3-((trifluoromethyl)sulfonyl)phenyl)carbamoyl)phenyl)carbamoyl)-[1,1′-biphenyl]-4-carboxylic acid]

Source: patent US11667602B2, “Compounds and their use” (AstraZeneca AB, priority 2020, dated 2023)
